We go through eight compounds from US5155106A, “Cysteamine derivatives and antirheumatic agents containing cysteamine derivatives” (Terumo Kabushiki Kaisha, priority 1988, dated 1992).

In this assay the test system is adjuvant arthritis of Lewis rats. In words: Suppression of adjuvant arthritis in Lewis rats (hind leg sole edema, Mycobacterium butyricum). It is filed as in vivo. Particulars: Rattus norvegicus, 432 h, 100 mg/kg oral once a day, 18 days after sensitization; for inhibition in vivo at 100 mg/kg: edema increase vs control group, t-test *P<0.05, **P<0.02, ***P<0.01; for change in vivo at 100 mg/kg: percent increase vs volume before sensitization, control 130.9 ± 5.1 (Table 1), 137.6 ± 15.7 (Table 2), 131.0 ± 10.0 (Table 3), read-out: Increase in volume due to edema. As for the experimental part:
The compounds according to the present invention obtained in the Examples were evaluated for their effects against adjuvant arthritis (diseased animal model for chronic articular rheumatism) of Lewis rats.
In the Experiment, five six week old male Lewis rats (body weight, 130 to 160 g) were treated as one group.
To right hind leg sole of rats from each group was subcutaneously injected with 0.2 mg of dry culture of Mycobacterium butyricum suspended in liquid paraffin. The compounds were suspended in 5% Tween 80, and the suspensions were orally administered to the rats once a day from the day next to the day of sensitization. The rats of both the medicated groups and the control group (non-medicated group) were intermittently measured for their volume of edema in their hind leg sole to examine the effects of the compounds for suppressing the adjuvant arthritis.
Percent increase in the volume of the hind leg sole due to the edema was calculated on the basis of the volume before sensitization, and suppression was determined by comparing the percent increase of the medicated group with that of the control group.

SMILES strings stand for the structures.

As to `CCCc1c(OC)ccc(C(=O)N2CCSCC2)c1O` [XIV, N-(2-hydroxy-3-n-propyl-4-methoxybenzoyl)thiomorpholine], the inhibition in vivo (as a rule, the percentage by which the read-out fell short of the control) at 100 mg/kg stood at 21.5% and the change in vivo at 100 mg/kg came out at 103 ± 10%.
The corresponding values for `CCCc1c(OC)ccc(C(=O)NCc2cccs2)c1O` [XVI, N-(2-hydroxy-3-n-propyl-4-methoxybenzoyl)-2-thiophenemethylamine] are 34.4% and 85.9 ± 11.1%.
As to `COc1ccc(C(=O)NCCS)c(O)c1` [XVII, N-(2-hydroxy-4-methoxybenzoyl)cysteamine], the inhibition in vivo at 100 mg/kg amounted to 38.4% and the change in vivo at 100 mg/kg was 84.8 ± 10.4%.
In the case of `CCCc1c(OC)ccc(C(=O)N2CCSC2)c1O` [XV, N-(2-hydroxy-3-n-propyl-4-methoxybenzoyl)thiazolidine], the inhibition in vivo at 100 mg/kg stood at 27% and the change in vivo at 100 mg/kg came out at 95.6 ± 9.6%.
The corresponding values for `COc1ccc(C(=O)NC2=NCCS2)c(O)c1` [XIII, 2-(2-hydroxy-4-methoxybenzoylamino)thiazoline] are 23.5% and 100 ± 3.1%.
As for `CCCc1c(OC)ccc(C(=O)NCCS)c1O` [XVIII], the inhibition in vivo at 100 mg/kg stood at 30.1% and the change in vivo at 100 mg/kg amounted to 91.6 ± 10.9%.
The matching figures for `CCCCCCCCSCCNC(=O)c1ccc(OC)c(CCC)c1O` [XX, 2-(2'-hydroxy-3'-n-propyl-4'-methoxybenzoylamino)ethyl-n-octylsulfide]: 21.1% and 103 ± 8.8%.
In the case of `CCCCCCCCSCCNC(=O)c1ccc(OC)cc1O` [XIX, 2-(2'-hydroxy-4'-methoxybenzoylamino)ethyl-n-octylsulfide], the inhibition in vivo at 100 mg/kg was 41.4% and the change in vivo at 100 mg/kg was 76.8 ± 17.8%.
